Experimental data published in US20200262869A1, “PEPTIDE ANTIBIOTIC COMPLEXES AND METHODS OF USE THEREOF” (GENENTECH, INC., priority 2017, published 2020).
Values after ≈ are worked out from the molar mass of the structure shown. Read-outs that look alike come from different tables or passages of the source.

What was measured:
[1] = tested on: MDR K. pneumoniae CDC 0106; experiment: MIC against MDR clinical isolate; format: cell-based; details: Klebsiella pneumoniae; MDR K. pneumoniae CDC 0106; read-out: MIC
Description: (§1) Minimum Inhibitory Concentration (MIC). MICs were determined by performing two-fold serial dilutions of compound in Mueller Hinton II cation-adjusted broth to a final volume of 0.1 m1 in round-bottom 96-well assay plates (Corning Life Sciences No 3788). Each well was inoculated with 5×10^5 CFU/ml and incubated at 37° C. without agitation for 18 hours. Plates were scored by eye, and the lowest compound concentration preventing visible growth was determined to be the MIC.

[2] = target: T1, full length recombinant LepB from E. coli (Escherichia coli, UniProt P00803); experiment: LepB kinetic enzyme assay (fluorogenic peptide substrate); format: biochemical
T1 construct: 500 pM full length recombinant LepB from E. coli
Description: A 20 μL reaction in PBS (pH 7.4) containing 0.1% Triton X-100 was initiated by adding 500 pM full length recombinant LepB from E. coli to a 384-well polypropylene assay plate (Thermo Scientific) containing indicated concentration of G0775 and 10 uM fluorogenic peptide substrate Dabcyl-DAP-PAKAAE-Edans (SEQ ID NO: 6) (GL Biochem, Boston, Mass.). Substrate cleavage separates the Dabcyl quencher from the Edans fluorophore, resulting in 490 nm fluorescence (340 nm excitation). The reaction was read kinetically using a pherastar plate reader (BMG Labtech), and curves were fit to a 2-step irreversible binding model using Dynafit software (BioKin Ltd.) to determine Kinact/KI binding constants.

[3] = tested on: K. pneumoniae strain ATCC 43816; experiment: Mucin peritonitis survival study in mice; format: in vivo; details: 5 mg/kg BID subcutaneously on day of infection; out to 84 hours
Description: CD1 mice (Charles River Laboratories) were infected through intraperitoneal injection of 0.4 mL K. pneumoniae (ATCC 43816) at 3×10^5 CFU/mouse in 5% mucin (Sigma M1778). At 2 and 11 hours post infection, G0775 was given at the indicated dose subcutaneously. Ciprofloxacin (Claris Lifesciences Inc.) was dosed at 80 mg/kg subcutaneously once at 2 hour post infection. Mice were monitored for body conditioning and survival until 84 hours post infection.

E. coli ATCC 25922 = experiment: Time-kill; format: cell-based; details: E. coli ATCC 25922, across a 24 hour period
Excerpt: FIG. 5. […] Colony forming units (CFU) per mL data shown is an average of at least three independent experiments with error bars representing the SD.

[4] = tested on: 49 multidrug resistant clinical isolates of E. coli and K. pneumoniae; experiment: MIC against CDC challenge panel of 49 multidrug resistant clinical isolates; format: cell-based; details: CDC challenge set
Description: To better assess the ability of G0775 to circumvent specific resistance mechanisms, a single MDR isolate, CDC 0106, was focused on. […] Chromosomal mutations associated with high level quinolone resistance and polymyxin resistance were also identified (FIGS. 10A-10B). Importantly, the elements encoded by CDC 0106 confer resistance to nearly all available antibiotic classes (Table 2).
as §1

`Cc1nc(-c2ccc(C(C)(C)C)cc2)ncc1C(=O)NC(CCN)C(=O)N(C)C1C(=O)NC(C)C(=O)NC(C(=O)NCC#N)Cc2ccc(OCCN)c(c2)-c2cc1ccc2OCCN` (centres unmarked) [G0775] showed an MIC [1] of 0.5 µg/mL (≈ 0.562 µM), a kinact/KI ([2]; full-length LepB embedded in a detergent micelle) of 1.59e+06 M⁻¹ s⁻¹ and a Ki ([2]; full-length LepB embedded in a detergent micelle, read-out: KI (prechemistry binding)) of 0.44 nM. For the same molecule, the kinact ([2]; read-out: kinact (irreversible inactivation)) was 0.0007 s⁻¹, the kinact ([2]; three independent experiments, read-out: Kinact) was 0.0007 ± 0.0002 s⁻¹ and the “survival (animal viability)” value [3] was “full animal viability”. For the same molecule, the “reduction of the number of viable bacteria (time-dependent killing)” value (E. coli ATCC 25922) was “over 6 orders of magnitude” and the “activity against panel of 49 multidrug resistant clinical isolates (MIC)” value [4] was “maintains its potent activity against all 49 isolates”.
